From patent US20200270309A1, “MALEIMIDE GROUP-MODIFIED ANGIOGENESIS INHIBITOR HM-1 AND USE THEREOF” (NANJING ANJI BIOLOGICAL TECHNOLOGY CO., LTD, priority 2017, published 2020)
Marks after values point to notes of the source that are not given here. Peptide text beside a SMILES is read from it. * marks the point of attachment. X58 = O=C1C=CC(=O)N1c1cccc(CCCCCCCCCCCC(=O)*)c1; X72 = O=C1C=CC(=O)N1c1ccccc1CCCCCCCCCCC(=O)*; X55 = O=C1C=CC(=O)N1c1ccccc1CCCCCCCCC(=O)*

Legend:
[1] = system: xylene-induced ear swelling; test: Xylene-induced mouse ear swelling; type: in vivo; settings: Kunming mice, injected once a day for 5 days; for Swelling degree (mg) / Swelling degree: right minus left ear piece weight 2 h after xylene; for Inhibition rate (%): xylene-induced ear swelling
Experimental: Kunming mice were taken, a normal saline group was taken as a blank control group, an aspirin group (200 mg/kg) was taken as a positive control group, and X1-X90 administration groups were taken as test groups. The mice were injected once a day for 5 consecutive days. The blank control group was given an equal volume of normal saline. One hour after the last administration, 0.05 mL of xylene was applied to both sides of the right ear of each mouse to cause inflammation, while no drug was applied to the left ear as a normal ear. Two hours later, the mice were put to death by dislocation. Two ears were cut along the auricle. Ear pieces were taken with a puncher and weighed, and the swelling degree and the swelling rate were calculated. Swelling degree=right ear piece weight-left ear piece weight, swelling rate=(swelling degree/left ear piece weight)*100%. Statistical t-test was conducted on the experimental results. *P<0.05 indicates significant difference, and **P<0.01 indicates extremely significant difference.

[2] = system: retinal neovascularization (OIR model); test: Retinal vessels in OIR mice; type: in vivo, C57/B16 mice; settings: for Area of neovascular plexus (mm^2): dose 0.05 μM in the vitreous chamber on day 13, retinal vessels evaluated on day 17; for Inhibition rate (%): dose 0.05 μM in the vitreous chamber on day 13, retinal vessels evaluated on day 17, vs negative control
Text: Establishment of an OIR model: Young mice and their mothers were exposed in a 75% hyperoxic environment from day 7 to day 12 after the birth of C57/B16 mice, which caused capillaries in their central retina to disappear rapidly. The mice were returned to the indoor air on day 12, retinal vessels exposed to hyperoxia quickly disappeared, causing extensive abnormal neoangiogenesis, and the central part of the retina remained largely avascular for a long time. After the blood vessels disappeared completely, the mice were injected with normal saline (a negative group), X1-X12, X13-X44, X45-X90 in the vitreous chamber on day 13 respectively, and retinal vessels were evaluated on day 17 ([…] of Texas red labeled tomato agglutinin was injected into the left ventricle to mark unclosed vessels and circulated for 5 min).

[3] = system: choroidal neovascularization; test: Choroidal neovascularization in rats (laser photocoagulation, FFA); type: in vivo; settings: BN rats
Experimental: 6-8 weeks male BN rats were fully anesthetized by intraperitoneal injection of 846 compound anesthetic with a concentration of 0.5 mL/kg. Compound tropicamide eye drops were used once 5 min before laser photocoagulation to fully dilate the pupils of both eyes. The animals were fixed and subjected to krypton laser photocoagulation equidistantly around an optic disc with the aid of a −53.00D corneal contact lens at a distance of 2PD from the optic disc. A total of 8 photocoagulation spots were obtained. The laser wavelength was 647.1 nm, the power was 350 mW, and the diameter and time of the photocoagulation spots were 50 μm and 0.05 s respectively. Fundus photography was performed immediately after photocoagulation. FFA, histopathology and transmission electron microscopy were performed on the days 3, 7, 14, 21 and 28 after photocoagulation respectively.
Through fundus photography and FFA examination, it was confirmed that the fluorescein leakage of the photocoagulation spot reached its peak on day 21 after photocoagulation. At the same time, histopathological examination was carried out.
Rats with successful modeling were randomly grouped, with 5 rats in each group. The groups were marked as a negative control group and X1-X90 treatment groups respectively. The rats were injected with normal saline and X1-X90 (the doses of X1-X90 were each 0.05 μM) in the vitreous chamber once a day for 1 week. FFA examination was carried out 3 days, 7 days, 14 days and 28 days after administration.

[4] = system: human retinal capillary endothelial cells (HRCECs); test: MTT proliferation inhibition on HRCECs; type: cell-based; settings: 48 h; for A570 nm-A630 nm: mean±SD
Experimental: An MTT method was used to detect the inhibitory activity of the angiogenesis inhibitor polypeptide on proliferation of HRCECs. HRCECs were digested and collected with trypsin after being cultured in an incubator at 37° C. with 5% CO2 to a density of 90% or more. The cells were resuspended with a culture solution and counted under a microscope, the cell concentration was adjusted to 3.0×10^4 cells/mL, and the cell suspension was inoculated into a 96-well plate at 100 μL/well, and cultured overnight in an incubator at 37° C. with 5% CO2. After the cells were completely adhered to the wall, cells with the addition of the angiogenesis inhibitor polypeptide were used as administration groups, cells with the addition of Avastin were used as a positive control group, and cells with the addition of culture solution without any drugs were used as a blank control group. The cells were diluted to respective predetermined concentrations with the culture solution. The diluent were added into 96-well plates respectively at 100 μL per well, and the cells were cultured at 37° C. for 48 h in an incubator with 5% CO2. 20 μL of 5 mg/mL MTT was added into each well of the 96-well plate, and the cultivation was continued for 4 h. The culture medium was removed, and 100 μL of DMSO was added to each well for dissolution. The absorbance was measured at a detection wavelength of 570 nm and a reference wavelength of 630 nm using a microplate reader, and the PIR was calculated by the formula as follows:
PIR (%)=1−administration group/negative group
The experiment was repeated independently three times. The results were expressed as mean±SD, and statistical T test was conducted. *P<0.05 indicates significant difference, and **P<0.01 indicates extremely significant difference.

[5] = system: carrageenan-induced toe swelling; test: Carrageenan-induced toe swelling in rats; type: in vivo; settings: SD rats; for Swelling degree 1 h: 1 h after carrageenan; for Swelling degree 3 h: 3 h after carrageenan; for Swelling degree 5 h: 5 h after carrageenan; for Swelling degree 7 h: 7 h after carrageenan
Experimental: The rats were injected once a day, and the model group was given the same volume of normal saline for 3 d and fed normally. […] The foot swelling degree was calculated according to the following formula: foot swelling degree (mL)=foot volume after inflammation-foot volume before inflammation. The number of milliliters of overflow liquid was recorded (method: a ballpoint pen is used to circle the protruding point of the right joint as a measurement mark, and the right hind feet of each rat are sequentially placed into the volume measurer, so that the hind limbs are exposed outside the barrel, and the immersion depth is at the coincidence of the circle and the liquid level. After the foot enters the liquid, the liquid level rises, and the volume of overflow liquid is the volume of the right hind foot of the rat, and the normal volume of the right hind foot of each rat is measured in sequence).

[6] = day 3 after administration, total light spot number was 297, 0.05 μM in the vitreous chamber once a day for 1 week
[7] = day 7 after administration, total light spot number was 186, 0.05 μM in the vitreous chamber once a day for 1 week
[8] = day 14 after administration, total light spot number was 137, 0.05 μM in the vitreous chamber once a day for 1 week
[9] = day 28 after administration, total light spot number was 69, 0.05 μM in the vitreous chamber once a day for 1 week

Row | Structure (SMILES) | Inhibition rate (%) ([1]; dose 2 mg/kg) | Swelling degree (mg) ([1]; dose 4 mg/kg) | Inhibition rate (%) ([1]; dose 4 mg/kg) | Swelling degree (mg) ([1]; dose 8 mg/kg) | Inhibition rate (%) ([1]; dose 8 mg/kg) | Area of neovascular plexus (mm^2) [2] | Inhibition rate (%) [2] | CNV Incidence (%) [3, 6] | Leakage Light spot number [3, 6] | CNV Incidence (%) [3, 7] | Leakage Light spot number [3, 7] | CNV Incidence (%) [3, 8] | Leakage Light spot number [3, 8] | CNV Incidence (%) [3, 9] | Leakage Light spot number [3, 9] | Inhibition rate (%) ([4]; dose 0.05 μM) | A570 nm-A630 nm ([4]; dose 0.05 μM) | Inhibition rate (%) ([4]; dose 0.1 μM) | A570 nm-A630 nm ([4]; dose 0.1 μM) | Inhibition rate (%) ([4]; dose 0.2 μM) | further results
1 | C[C@H](NC(=O)CNC(=O)[C@H](CCCNC(=N)N)NC(=O)CCCCCCCCCCc1ccccc1N1C(=O)C=CC1=O)C(=O)N[C@@H](CC(=O)O)C(=O)N[C@@H](CCCNC(=N)N)C(=O)N[C@@H](C)C(=O)NCC(=O)NCC(=O)NCC(=O)NCC(=O)N[C@@H](CCCNC(=N)N)C(=O)NCC(=O)N[C@@H](CC(=O)O)C(=O)O [X22] (X72-RGADRAGGGGRGD-OH) | 24.24% | 3.67 ± 0.77** mg | 41.09% | 3.42 ± 0.21** mg | 45.10% | 0.082 ± 0.005 mm^2 | 61.32%** | 53.87% | 160 | 47.85% | 89 | 43.80% | 60 | 37.68% | 26 | 49.30%* | 0.6701 ± 0.07545 | 64.15%** | 0.4738 ± 0.00344 | 66.52%* | Swelling degree (mg) ([1]; dose 2 mg/kg): 4.72 ± 0.29* mg; A570 nm-A630 nm ([4]; dose 0.2 μM): 0.4425 ± 0.04816; Swelling degree 1 h ([5]; 2.0 mg/kg once a day for 3 d): 0.24 ± 0.13 mg; Swelling degree 3 h ([5]; 2.0 mg/kg once a day for 3 d): 0.31 ± 0.15 mg; Swelling degree 5 h ([5]; 2.0 mg/kg once a day for 3 d): 0.42 ± 0.14 mg; Swelling degree 7 h ([5]; 2.0 mg/kg once a day for 3 d): 0.38 ± 0.18 mg; Swelling degree 1 h ([5]; 4.0 mg/kg once a day for 3 d): 0.23 ± 0.11 mg; Swelling degree 3 h ([5]; 4.0 mg/kg once a day for 3 d): 0.31 ± 0.16 mg; Swelling degree 5 h ([5]; 4.0 mg/kg once a day for 3 d): 0.36 ± 0.13 mg; Swelling degree 7 h ([5]; 4.0 mg/kg once a day for 3 d): 0.37 ± 0.13 mg
2 | C[C@H](NC(=O)CNC(=O)[C@H](CCCNC(=N)N)NC(=O)CCCCCCCCc1ccccc1N1C(=O)C=CC1=O)C(=O)N[C@@H](CC(=O)O)C(=O)N[C@@H](CCCNC(=N)N)C(=O)N[C@@H](C)C(=O)NCC(=O)NCC(=O)NCC(=O)NCC(=O)N[C@@H](CCCNC(=N)N)C(=O)NCC(=O)N[C@@H](CC(=O)O)C(=O)O [X20] (X55-RGADRAGGGGRGD-OH) | 8.19% | 3.78 ± 0.88** mg | 39.33% | 3.47 ± 0.07** mg | 44.30% | 0.118 ± 0.014 mm^2 | 44.34%* | 52.53% | 156 | 48.92% | 91 | 42.34% | 58 | 39.13% | 27 | 44.28%* | 0.7365 ± 0.05032 | 46.12%** | 0.7121 ± 0.0349 | 60.14%* | Swelling degree ([1]; dose 2 mg/kg): 5.72 ± 0.01 mg; A570 nm-A630 nm ([4]; dose 0.2 μM): 0.5268 ± 0.01299; Swelling degree 1 h ([5]; 2.0 mg/kg once a day for 3 d): 0.25 ± 0.18 mg; Swelling degree 3 h ([5]; 2.0 mg/kg once a day for 3 d): 0.34 ± 0.13 mg; Swelling degree 5 h ([5]; 2.0 mg/kg once a day for 3 d): 0.36 ± 0.13 mg; Swelling degree 7 h ([5]; 2.0 mg/kg once a day for 3 d): 0.37 ± 0.12 mg; Swelling degree 1 h ([5]; 4.0 mg/kg once a day for 3 d): 0.24 ± 0.15 mg; Swelling degree 3 h ([5]; 4.0 mg/kg once a day for 3 d): 0.34 ± 0.12 mg; Swelling degree 5 h ([5]; 4.0 mg/kg once a day for 3 d): 0.35 ± 0.16 mg; Swelling degree 7 h ([5]; 4.0 mg/kg once a day for 3 d): 0.35 ± 0.12 mg
3 | C[C@H](NC(=O)CNC(=O)[C@H](CCCNC(=N)N)NC(=O)CCCCCCCCCCCc1cccc(N2C(=O)C=CC2=O)c1)C(=O)N[C@@H](CC(=O)O)C(=O)N[C@@H](CCCNC(=N)N)C(=O)N[C@@H](C)C(=O)NCC(=O)NCC(=O)NCC(=O)NCC(=O)N[C@@H](CCCNC(=N)N)C(=O)NCC(=O)N[C@@H](CC(=O)O)C(=O)O [X35] (X58-RGADRAGGGGRGD-OH) | 10.27% | 4.78 ± 0.64* mg | 23.27% | 3.48 ± 0.28** mg | 44.14% | 0.101 ± 0.005 mm^2 | 52.36%** | 52.19% | 155 | 47.85% | 89 | 46.72% | 64 | 44.93% | 31 | 43.91%* | 0.7413 ± 0.08995 | 56.72%** | 0.5720 ± 0.01284 | 57.45%* | Swelling degree ([1]; dose 2 mg/kg): 5.59 ± 0.91 mg; A570 nm-A630 nm ([4]; dose 0.2 μM): 0.5624 ± 0.01279; Swelling degree 1 h ([5]; 2.0 mg/kg once a day for 3 d): 0.25 ± 0.11 mg; Swelling degree 3 h ([5]; 2.0 mg/kg once a day for 3 d): 0.38 ± 0.16 mg; Swelling degree 5 h ([5]; 2.0 mg/kg once a day for 3 d): 0.38 ± 0.19 mg; Swelling degree 7 h ([5]; 2.0 mg/kg once a day for 3 d): 0.33 ± 0.15 mg; Swelling degree 1 h ([5]; 4.0 mg/kg once a day for 3 d): 0.23 ± 0.11 mg; Swelling degree 3 h ([5]; 4.0 mg/kg once a day for 3 d): 0.36 ± 0.16 mg; Swelling degree 5 h ([5]; 4.0 mg/kg once a day for 3 d): 0.44 ± 0.14 mg; Swelling degree 7 h ([5]; 4.0 mg/kg once a day for 3 d): 0.32 ± 0.12 mg
